Test results taken from publication PMC8658095, “PHA-680626 Is an Effective Inhibitor of the Interaction between Aurora-A and N-Myc” (International Journal of Molecular Sciences, 2021).
Read-outs that look alike come from different tables or passages of the source. One block for each compound: values may come before it.

Columns and labels:
AURKA [1] = conditions: cited from earlier work
AURKA [2] = molecular target: T1, AURKA (Homo sapiens, UniProt O14965); assay: SPR binding kinetics on immobilized AURKA; conditions: 25 °C, flow rate 150 μL/min
T1 construct: the catalytic domain of human AURKA (amino acids 122–430); His-tag followed by TEV protease cleavage site (N); made in house; host or cells: bacterial culture (LB, kanamycin, IPTG induction; pETM11)
T1 sequence (O14965 122-403 limits assumed): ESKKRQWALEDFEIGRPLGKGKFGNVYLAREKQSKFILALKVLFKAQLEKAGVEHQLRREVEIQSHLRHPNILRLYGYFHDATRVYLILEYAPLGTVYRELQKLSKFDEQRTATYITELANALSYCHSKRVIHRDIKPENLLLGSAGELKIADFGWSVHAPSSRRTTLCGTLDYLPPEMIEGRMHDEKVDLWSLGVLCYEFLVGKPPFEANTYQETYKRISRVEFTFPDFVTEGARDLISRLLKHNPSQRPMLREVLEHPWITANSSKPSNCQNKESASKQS
Method: AURKA was immobilized onto a PCH sensor chip, and each compound was injected at increasing concentrations in the running buffer. The interaction between AURKA and the ligands was indicated by the increase in Resonance Units (RUs), compared to the baseline.
SPR experiments were performed at 25 °C using a Pioneer AE optical biosensor (Molecular Devices-ForteBio, Fremont, CA, USA) equipped with a PCH sensor chip and equilibrated with running buffer 10 mM Hepes pH 7.4, 150 mM NaCl, 1% DMSO, 0.005% Tween20. The sensor chip was chemically activated for 7 min by injecting 175 μL of a 1:1 mixture of 100 mM N-hydroxysuccinimide (NHS) and 400 mM ethyl−3 (3-dimethylamino) propyl carbodiimide (EDC) at a flow rate of 25 μL/min. AURKA was immobilized on both Ch1 and Ch3 channels of the activated sensor chip by using standard amine-coupling procedures [42]. Flow cell Ch2 was left empty and used as a control. Briefly, a 0.1 mg/mL AURKA solution (in 10 mM sodium acetate, pH 4.5) was injected at 10 μL/min on channels 1 and 3 (channel 2 was used as reference), followed by a 70 μL injection of 1 M ethanolamine pH 8.0 to block any remaining activated groups on the surface. AURKA was captured to a density of ~14,000 resonance units (RUs) on both Ch1 and Ch3 flow cells.
A dissociation of 180 s was used and a mild regeneration of the surfaces was carried out every three injections using a solution of 1 M NaCl and 10 mM NaOH. At least two experiments for each analyte were performed. The interaction of the tested inhibitors with immobilized AURKA was detected as a measure of the change in mass concentration, expressed in RUs. […] All sensorgrams were processed using double referencing [44]. First, responses from the reference surface (Ch2) were subtracted from the binding responses collected over the reaction surfaces to correct for bulk refractive index changes between the flow buffer and analyte sample. […] To obtain kinetic rate constants and affinity constants, the corrected response data were fit in the QDAT software. […] The equilibrium dissociation constant (Kd) was determined by the ratio koff/kon.

AURKA/N-Myc complex = molecular target: T2, AURKA/N-Myc complex (Homo sapiens, UniProt O14965); assay: In situ Proximity Ligation Assay of AURKA/N-Myc in U2OS MYCN cells; assay type: cell-based
T2 construct: endogenous in cells; host or cells: U2OS FRT/TO Flp-In; AURKA endogenous, N-Myc-tFT from a stably integrated, doxycycline-inducible construct
T2 sequence (O14965 1-403): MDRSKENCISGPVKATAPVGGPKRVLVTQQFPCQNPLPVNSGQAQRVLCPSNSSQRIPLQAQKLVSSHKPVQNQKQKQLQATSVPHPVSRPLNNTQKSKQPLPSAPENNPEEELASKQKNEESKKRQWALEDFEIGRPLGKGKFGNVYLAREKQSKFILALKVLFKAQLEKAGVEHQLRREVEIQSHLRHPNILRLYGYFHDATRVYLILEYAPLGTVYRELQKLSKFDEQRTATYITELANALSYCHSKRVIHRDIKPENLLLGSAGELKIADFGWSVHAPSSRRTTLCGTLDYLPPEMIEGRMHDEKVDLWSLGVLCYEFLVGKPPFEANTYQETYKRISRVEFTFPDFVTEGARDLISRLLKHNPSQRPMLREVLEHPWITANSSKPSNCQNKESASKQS
From the text: After treatment with the investigated inhibitors, the raw number of isPLA spots within the cell nuclei was normalized by the mean value of the control population. Cells were then assigned to four different classes, based on their number of normalized spots per nucleus (Figure 4C).
(C) in situ Proximity Ligation Assays to visualize the AURKA/N-Myc complex formation. […] The histograms on the right show the distribution (%) of cells in classes, defined by isPLA spot values. Values represent isPLA spots per nucleus, normalized to the average value in control cells (at least 1400 measured cells per condition, from four independent experiments); mean and SDare shown. Statistical analysis by 2-way ANOVA-Tukey’s multiple comparison, *: p < 0.05; ***: p < 0.001.
The Duolink PLA kit (DUO92007, Sigma-Aldrich) was used according to the manufacturer’s instructions. […] Counterstaining with DAPI (DUO82040, DAPI mounting media, Sigma Aldrich) was performed at the end of the procedure. For quantification of isPLA fluorescence signals, samples were analyzed with an inverted microscope Eclipse Ti (Nikon) using a Clara camera (ANDOR technology) and 60× (oil immersion, N.A. 1.4) objective along the z-axis every 0.4 μm for a range of 3.2 μm (for the U2OS MYCN cell line) or 5 μm (for the IMR-32 cell line). Images were acquired in the automated mode with the JOBS module of the Nis-Elements H.C. […]

IMR-32 cells [3] = assay: Cell death (PARP-1 cleavage) and morphology of IMR-32 cultures; assay type: cell-based; conditions: IMR-32, 1 μM, 48 h
IMR-32 cells [4] = assay: FACS analysis (PI) of cell cycle and sub-G1 DNA content; assay type: cell-based; conditions: IMR-32, 1 μM, 48 h; DMSO about 8%
From the text: We then moved to a neuroblastoma MYCN-amplified cell line, IMR-32.
(C) FACS analysis of IMR-32 cells treated as in (A) and stained with PI. The region used to evaluate the fraction of cells displaying sub-G1 DNA content is indicated. The percentage of vital cells distributed in each phase of the cell cycle, as well as the percentage of cells with sub-G1 DNA content calculated on the total acquired events, are shown (one experiment representative of three independent experiments).
To analyze the cell-cycle phases distribution, both non-adherent and adherent cells were collected by centrifugation, washed with PBS, and fixed with 50% methanol overnight at 4 °C. Cell-cycle phase distribution was analyzed after incubation for 30 min in the dark with propidium iodide (PI, 0.03 mg/mL) and RNAsi A (0.2 mg/mL) using a flow cytofluorimeter Epics XL apparatus (Beckman Coulter, Brea, CA, USA). […] Cell samples were analyzed in a Coulter Epics XL cytofluorometer (Beckman Coulter) equipped with EXPO 32 ADC software. At least 10,000 cells per sample were acquired. The percentage of cells in the different phases of cell-cycle and in the sub-G1 compartment was calculated using Flowing Software 2.5.1.

[5] = design: method as in PMID 25175806; conditions: cited from earlier work

Koff (AURKA [2]): 12.0 ± 0.09 s^−1 × 10^−3
Kon (AURKA [2]): 7.8 ± 0.1 M^−1s^−1 × 10^6
Kd (AURKA [2]; koff/kon): 1.55 ± 0.03 nM
Structure (SMILES): O=C(c1cccc(Cl)c1F)N1CCN(Cc2cccc(Nc3nccs3)n2)CC1 [MK8754, MK8745]
IC50 (AURKA [1]): 0.6 nM

Structure (SMILES): COc1cc2c(Nc3ccc(NC(=O)c4ccccc4)cc3)ncnc2cc1OCCCN1CCOCC1 [ZM447439]
AURKA/N-Myc interaction (isPLA spots per nucleus) (AURKA/N-Myc complex; U2OS MYCN, 1 μM, MG-132 4 h before fixation): no difference between control and treated cells
cell morphology (IMR-32 cells [3]; bright-field microscopy): only induced spherical mitotic shapes

AURKA/N-Myc interaction (isPLA spots per nucleus) (AURKA/N-Myc complex): significantly reduced
Structure (SMILES): O=C(O)c1ccc(Nc2ncc3c(n2)-c2ccc(Cl)cc2C(c2c(F)cccc2F)=NC3)cc1 [MLN8054]
cells with sub-G1 DNA content (IMR-32 cells [4]): ~30%
cleaved PARP-1 (cell death induction) (IMR-32 cells [3]; Western blot): a fraction of cleaved PARP-1

Structure (SMILES): O=C(Nc1ccc(Nc2nccc(Nc3cc(C4CCCC4)[nH]n3)n2)cc1)Nc1cccc(C(F)(F)F)c1 [CD532]
half-life [5]: short half-life
oral bioavailability [5]: poor oral bioavailability
